Consider 87 compounds from a melting point compilation (Tetko et al.; mined from patent text by program, amines drawn as free bases though some values may be those of a salt).

A value given as a limit tells only on which side of the number the result lay.

With `CC(C)Oc1cc(Oc2ccc(C(F)(F)F)cn2)ccc1CCCOc1cc(CCC(=O)O)n(C)n1`, the melting point was in the range of 128 to 130 °C.
To `CNc1nc(-c2ccc(Cl)cc2)c(CCC(=O)O)o1` belongs 217 to 218 °C; to `O=C(c1ccccc1Cl)P1(=O)Oc2ccccc2-c2ccccc21` (configuration not stated), 108 to 110 °C; to `CC1Cc2ccccc2CN(CCC(N)=O)C1=O` (configuration not stated), 168 to 169 °C.
To `CN(C)C(=S)SC(C[N+](=O)[O-])c1cc([N+](=O)[O-])ccc1Cl` (configuration not stated) belongs 120 to 121 °C; to `O=C(O)CCNc1cc(C(c2cc(F)ccc2F)S(=O)(=O)c2ccc(Cl)cc2)c(Cl)cn1` (configuration not stated), 200 to 205 °C; to `COCCO[C@H]1c2ccn3c(C)c(C)nc3c2N[C@@H](c2ccccc2)[C@@H]1O`, 130 to 131 °C.
Take `CC(C)=CCC(CC=C(C)C)(C(=O)NO)S(=O)(=O)c1ccc(C)cc1`: the melting point fell in the range of 108 to 110 °C.
Regarding `CCS(=O)(=O)c1ccc(-c2cc(C(F)(F)F)ccc2OCC(=O)O)cc1C(F)(F)F`, the melting point was in the range of 174 to 175 °C.
The compound `CCC(O)(CC(=O)OC(C)(C)C)c1cc[nH]c(=O)c1` (configuration not stated) yielded a melting point of 167 °C.
With `Cn1nc(-c2c(F)cccc2Cl)nc1-c1sc(Cl)c(Cl)c1Cl`, the melting point was 129 to 130 °C.
As to `COC(=O)c1ccnc(Nc2cc(OC)cc(C(F)(F)F)c2)c1`, the melting point lay within 178 to 179 °C.
To `O=C1CCCc2c1c1cccc(Cl)c1n2Cc1ccccc1` belongs 161 to 162 °C.
To `CCOc1ccc(C(=O)Nc2c(Cl)cncc2Cl)c2c3cc(Cl)ccc3n(Cc3ccccc3)c12` belongs 221 to 223 °C.
In the case of `O=[N+]([O-])c1ccc2c(c1)N(C1CCN(CCc3ccc(F)cc3)CC1)CC2` it was 104 to 106 °C; in that of `CC(C)[C@H](NC(=O)N(C)Cc1nccs1)C(=O)N[C@@H](Cc1ccccc1)C[C@H](O)[C@H](Cc1ccccc1)NC(=O)[C@@H](NC(=O)N(C)Cc1nccs1)C(C)C`, 195 to 197 °C.
For `O=C(C1CC2(CCN1)OCCO2)N1CCCC1` (configuration not stated), the melting point lay within 72.5 to 74.5 °C.
With `CC(C)S(=O)(=O)c1cc(OCCc2ccccn2)c2[nH]nc(Nc3nccs3)c2c1`, the melting point was in the range of 190 to 191 °C.
To `CN(C)C=NC(=Nc1ccccc1)N1CCOCC1` belongs 109 to 112 °C.
`CCC(C(c1ccc(OC)cc1)c1ccc(C(C)(C)C)cc1)[N+](=O)[O-]` (configuration not stated) returned a melting point of 114 to 116 °C.
To `COc1ccc(C(=O)C#Cc2ccc3c(c2)c(=O)n(Cc2ccc(F)cc2)c(=O)n3C)cc1` belongs 240 °C; to `Cn1c2cc(C=O)ccc2c2nc3ccccc3nc21`, 237 to 238 °C.
To `NS(=O)(=O)c1ccc(N2CCN(CC[C@H]3OCCc4ccccc43)CC2)cc1` belongs 189 to 190 °C; to `Fc1ccc(-c2ncn(C3CCNCC3)c2-c2ccnc(Oc3cccc(F)c3)n2)cc1`, 155 to 156 °C; to `COc1ccc(-c2ccc3c(C)c(OC)ccc3c2)cc1`, 136 to 138 °C.
As to `Cc1cc(=O)n(C2CCCCC2)n1C`, the melting point was in the range of 99 to 100 °C.
Take `CC(SC1COC(c2ccc(C(=O)Nc3ccc(OC(F)(F)F)cc3)cc2)OC1)C(O)(Cn1cncn1)c1ccc(F)cc1F` (configuration not stated): the melting point is 180 °C.
For `COCC(C)NC1=NS(=O)(=O)c2cnccc2N1` (configuration not stated), the melting point was 174 to 178 °C.
The compound `CN1CCC(N(C2CC2)S(=O)(=O)c2ccc(Nc3nccc(Nc4ccc(F)cc4)n3)cc2)CC1` yielded a melting point of 218 °C.
To `CC(C(N)=O)c1ccc2c(c1)CCc1ccccc1S2` (configuration not stated) belongs 135 to 136 °C; to `CC(C)(C)C(=O)Nc1cc(Cl)c([N+](=O)[O-])cc1Cl`, 142 to 145 °C.
`O=C(O)c1cn(C2CSC2)c2cc(F)c(F)cc2c1=O` gave a melting point of 251 to 256 °C.
To `Clc1nc(Cl)c2sc(Cl)nc2n1` belongs 121 to 122 °C; to `CC(=O)NN=C(C)c1ccncc1`, 178 °C.
`CCc1oc2ccccc2c1C(=O)c1ccc(OC(C)C(=O)O)cc1` (configuration not stated) showed a melting point of 182 to 184 °C.
In the case of `O=[N+]([O-])c1cccc(Nc2nc(Cl)nc(NC3CCCCCC3)n2)c1` it was 82 °C; in that of `CCOc1ccc(Nc2n[nH]c3ncnc(Nc4cccc(Cl)c4)c23)cc1`, 232 to 233 °C.
In the case of `O=C1Nc2cnc(N3CCN(c4ccccn4)CC3)nc2S/C1=C/c1ccc([N+](=O)[O-])cc1` it was 332 to 334 °C.
Compound `Cc1ccc(N(C)CCC(C)NCC(O)c2ccc(O)c(C(N)=O)c2)cc1` (configuration not stated) returned a melting point of 123 to 126 °C.
To `Nc1ncc(F)cc1I` belongs 70 °C; to `CCOP(=O)(/C=C/c1cn(C)nc1OCc1ccc(OCc2nc(-c3ccco3)oc2C)c(OC)c1)OCC`, 72 to 73 °C.
To `CCOc1cc(C(O)c2ccccn2)ccc1OCc1ccccc1` (configuration not stated) belongs 109 to 110 °C.
To `Cc1ccc(CC2(O)CCN(CC3=Cc4ccc(O)cc4C3)CC2)cc1` belongs 154 to 157 °C.
In turn, `CN(C)Cc1nc(C(N)=O)nn1-c1ccc(Cl)cc1C(=O)c1ccccc1Cl` displayed a melting point of 177 to 180 °C.
In the case of `C=CCc1cc(Cl)cc2nc(Cc3ccc(OC)c(OC4CCCC4)c3)oc12` it was 43 to 44 °C; in that of `COC(=O)c1cc(Br)c2c(c1Cl)OC(c1ccccc1)(c1ccccc1)O2`, 137 to 138 °C.
Compound `O=[N+]([O-])c1ccc(F)c(CO)c1` registered a melting point of 50 to 53 °C.
In the case of `CONS(=O)(=O)c1ccc(C(F)(F)F)cc1` it was 96 to 97 °C.
Consider `CCCCCCCCCCOc1ccc(Oc2cccc(C(=O)O)c2)cc1CCC(=O)O`, for which the melting point is 102 to 104 °C.
`N=c1sc2cc(OC(F)(F)F)ccc2n1CCS(=O)c1ccncc1` (configuration not stated) showed a melting point of 194 °C.
Regarding `c1cc2nc3c(n2nc1N1CCCCC1)CCCC3`, the melting point fell in the range of 184 to 185 °C.
In the case of `Cc1c(C)n(CC2CC2)c2c(OCc3ccc(F)cc3)nncc12` it was 137 to 138 °C.
To `CC(=S)OC(c1ccccc1)C1(C)OCCO1` (configuration not stated) belongs 49 to 52 °C.
In turn, `CSC=CC(C)(C)C(=O)Nc1ccc(Cl)cc1` came in with a melting point of 105 to 106 °C.
To `Cc1[nH]c2ccc(C(=O)NS(=O)(=O)CCCCl)cc2c1Cc1ccc(Cl)cc1Cl` belongs 95.5 to 96.2 °C; to `O=C(O)c1ccc(-c2cccc([N+](=O)[O-])c2)[nH]c1=O`, 303 to 304 °C; to `O=c1[nH]c2ccc(-c3cccc(Cl)c3)cc2n1Cc1ccccc1`, 168 to 169 °C.
In turn, `C=C(C)C(=O)OCCCCOc1ccc(C(=O)Cl)cc1` returned a melting point of 30 to 31 °C.
Turning to `O=[N+]([O-])c1ccc(-c2nc3cc(OCc4ccccc4)ccc3s2)c(Cl)c1`, the melting point fell in the range of 156 to 157 °C.
The compound `C[C@@H](Nc1ncnc2[nH]c(-c3ccc(C(=O)O)cc3)cc12)c1ccccc1` displayed a melting point above 350 °C.
In the case of `Cc1cccc(C)c1CNc1cc(Br)cc2c1nc(C)n2O` it was 277 °C; in that of `O=C(NCC1Cc2cccc(-c3ccc(F)cc3F)c2O1)OCc1ccccc1` (configuration not stated), 78 to 80 °C; in that of `Cc1ccc2c(c1)C=Cc1cc(C)ccc1C2c1cn(-c2ccnc(NCC(=O)O)n2)c(=O)[nH]c1=S`, 205 °C.
Compound `CS(=O)(=O)Nc1ccc(NCC(=O)N2CCC(Cc3ccc(Cl)cc3)CC2)cc1` had a melting point of 70 °C.
To `CCOC(=O)CCCNC(=O)c1nn(C2CCCCO2)cc1NC(=O)c1ccccn1` (configuration not stated) belongs 114 to 115 °C; to `O=C(Nc1ccc([N+](=O)[O-])cc1O)NC(c1ccccc1)c1ccccc1`, 237 to 238 °C.
In the case of `O=C(NCCCCOc1ccc(-n2ccnc2)cc1)c1ccc(I)cc1` it was 143 to 145 °C; in that of `Cc1cccc(-c2n[nH]cc2-c2ccc(F)c(-c3ccc(N4CCOCC4)cn3)c2)n1`, 88 to 90 °C.
`CCOC(=O)C1=C(C)NC(=NC#N)N(C(=O)OCC)C1c1cccc([N+](=O)[O-])c1` (configuration not stated) registered a melting point of 174 to 175 °C.
In the case of `CCOc1ncnc2c(N3CCOCC3)nc(N3CCNCC3)nc12` it was 168 to 170 °C; in that of `O=C1Nc2ccc(Cl)cc2C1(Cl)c1cccc(F)c1F` (configuration not stated), 248 °C.
To `COc1ccc(CN2C(=O)C(C)(c3cc(N(C)C(=O)CN(C)C)ccc3Cl)c3cc(Cl)ccc32)c(OC)c1` (configuration not stated) belongs 104 °C; to `O=C1CN2Cc3ccccc3-c3cccc1c32`, 199 to 202 °C.
In the case of `COc1ccc(-c2c(-c3ccccc3)nc3n2CCS3)cc1OC`, the melting point lay within 176 to 178 °C.
For the compound `Cc1nnc2ccc(-c3cccc(Cl)c3)nn12`, the melting point fell in the range of 165 to 167 °C.
In turn, `Cc1nc2cc(Nc3nccc(-c4ccc(Cl)nc4)n3)ccc2s1` gave a melting point of 235 to 237 °C.
`COc1ccc2c(n1)c(CCNC(C)=O)c1n2Cc2ccccc2-1` displayed a melting point of 96 to 97 °C.
`CNC(=O)[C@@H]1C[C@@H](OCc2ccccc2)CN1S(=O)(=O)c1ccc(Cl)c(CBr)c1Cl` came in with a melting point of 62 to 64 °C.
To `N#Cc1n[nH]c(N)c1SC(F)(F)F` belongs 187 °C.
In the case of `Cc1ccc(C(=O)Nc2ccccc2)cc1NC(=S)Nc1cc(Cl)cc(Cl)c1` it was 182 to 184 °C.
To `Cn1ncc2c3cc(Cl)c(Cl)cc3n(C3OC(CO)C(O)C3O)c21` (configuration not stated) belongs 135 to 138 °C; to `Cc1cc(C)c(Nc2nc(C)ncc2S(=O)(=O)c2ccc(NCc3ccccc3)cc2)c(C)c1`, 200 to 202 °C; to `NS(=O)(=O)c1ccc(S(=O)(=O)CCCO)c([N+](=O)[O-])c1`, 168 to 170 °C.
On to `CCCc1cc(=O)oc2c(C(C)=O)c(O)cc(O)c12`, for which the melting point fell in the range of 221 to 224 °C.
Compound `CCOC(=O)C1CCCCN1C(=O)c1ccc(Cl)c(C2(C)C(=O)N(Cc3ccc(OC)cc3OC)c3ccc(Cl)cc32)c1` (configuration not stated) showed a melting point of 113 °C.
To `Cc1cc(CNC(=O)c2cc(-n3cnn(Cc4ccc(F)cc4)c3=O)n[nH]2)no1` belongs 276 to 277 °C; to `CC(=S)c1cncn1C(c1ccccc1)c1ccccc1`, 98 °C.
